{
  "source": "patent US8178506B2",
  "about": "“Oligomeric compounds and compositions for use in modulation of small non-coding RNAs” (Regulus Therapeutics Inc., priority 2003, dated 2012)",
  "tested_on": "DIO mice",
  "assay": "Diet-induced obesity (DIO) mice",
  "type": "in vivo",
  "data": [
    {"sequence": "TGAGCTACAGTGCTTCATCTCA [ISIS 340927] (chemistry not given here) [5-10-7 2′-MOE gapmer PS; targets mature mir-143]", "values": [
      {"measurement": "liver toxicity (plasma transaminase levels, weekly)", "setting": "25 mg/kg s.c. twice weekly, 25 mg/kg", "result": "did not cause significant increases in liver toxicity"},
      {"measurement": "insulin levels", "setting": "two and four week time points, vs saline", "result": "effective at reducing insulin levels"}
    ]}
  ]
}
